We go through four molecules from article PMC5983862, “Insight into small molecule binding to the neonatal Fc receptor by X-ray crystallography and 100 kHz magic-angle-spinning NMR” (PLoS Biology, 2018).

By pKd is commonly meant −log10 of the Kd, conventionally taken in molar units. Broadly, the stoichiometry N is the number of molecules, sites or subunits per partner or assembly.

pKd: −log10 of the molar value.

Test [1] addresses T1, neonatal Fc receptor (FcRn) α-chain, extracellular domain (FcRnECD) (Homo sapiens, UniProt P55899+P61769).
T1 construct: gene FCGRT; extracellular domain (ECD) (amino acids 1–297) of human FcRn α-chain, with human β2m; with β2-microglobulin (β2m, B2M)
In words: SPR Kd; X-ray crystal structure; MAS NMR chemical-shift perturbations. The test is classed as binding.

Test [2] addresses soluble extracellular domain of the neonatal Fc receptor (FcRnECD), heterodimer of α-chain and β2m, from insect cells (human). In words: crystal structure; FcRnECD from insect cells; crystals at pH 3 (PEG 6000, citric acid/ammonium citrate) and at pH 8.5 (Bis-Tris propane, NaI, PEG 3350); compounds soaked into pH 3 crystals; two heterodimers in the asymmetric unit.
The target of test [3] is T1, neonatal Fc receptor (FcRn) α-chain, extracellular domain (FcRnECD). In words: affinity measurement (SPR implied). The test is classed as binding.
Test [4] has the same target. In words: SPR Kd; X-ray crystal structure; […] CPMG and STD NMR fragment screen. The test is classed as binding.

T1 sequence (P55899 24-297): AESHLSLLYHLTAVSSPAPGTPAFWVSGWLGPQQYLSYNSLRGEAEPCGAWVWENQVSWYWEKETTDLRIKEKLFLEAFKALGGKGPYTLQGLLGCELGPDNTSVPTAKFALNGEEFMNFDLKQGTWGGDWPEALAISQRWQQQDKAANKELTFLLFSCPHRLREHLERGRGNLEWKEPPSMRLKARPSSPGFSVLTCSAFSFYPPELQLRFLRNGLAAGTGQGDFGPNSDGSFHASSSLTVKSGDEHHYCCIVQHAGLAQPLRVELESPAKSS
T1 sequence (P61769 21-119): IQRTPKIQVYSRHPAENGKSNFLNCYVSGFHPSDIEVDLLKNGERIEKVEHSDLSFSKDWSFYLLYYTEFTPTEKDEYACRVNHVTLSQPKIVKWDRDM

Turning to `COC(=O)C1=C(c2cccnc2)Nc2ncnn2C1c1cc(F)cc(F)c1` (stereo not shown) [UCB-FcRn-303, Methyl 7-(3,5-difluorophenyl)-5-(3-pyridyl)-4,7-dihydro-[1,2,4]triazolo[1,5-a]pyrimidine-6-carboxylate], in test [1], the pKd is 5.62.
Consider “soluble extracellular domain of the neonatal Fc receptor (FcRnECD), heterodimer of α-chain and β2m, from insect cells (complex)”, for which, in test [2], the stoichiometry N worked out at 2.
As to `CC(=O)C1=C(C)Nc2ncnn2C1c1cc(F)cc(F)c1` (racemic) [1-[7-(3,5-Difluorophenyl)-5-methyl-4,7-dihydro-[1,2,4]triazolo[1,5-a]pyrimidin-6-yl]ethanone], in test [3], the pKd was 5.62.
Regarding `CC(=O)C1=C(C)Nc2ncnn2C1c1cccc(F)c1` (racemic) [UCB-FcRn-84, 1-[7-(3-fluorophenyl)-5-methyl-4,7-dihydro-[1,2,4]triazolo[1,5-a]pyrimidin-6-yl]ethanone], the pKd in test [4] is ~4.10.
